Earlier results as cited in publication PMC10814857, “Functional Classification and Interaction Selectivity Landscape of the Human SH3 Domain Superfamily” (Cells, 2024).
Like-named read-outs stand apart in the source and are kept apart here.

Tests used:
SNX9 SH3 domain = details: cited from earlier work
SPTAN1 SH3 domain = target: SPTAN1 SH3 domain; design: method as in ref [63] (a number printed in a supplementary file, which may have a reference list of its own: not looked up in the article's list); details: SPTAN1, FL, Table S4; ref [63]; cited from earlier work
LCK SH3 domain = details: FL, Table S4, ref [74]; cited from earlier work
CRK-1 SH3 domain = target: CRK-1 SH3 domain; design: method as in ref [70] (a number printed in a supplementary file, which may have a reference list of its own: not looked up in the article's list); details: CRK-1, ITC, Table S4; ref [70]; cited from earlier work
STAC1 SH3 domain = details: STAC1, ITC, Table S4; ref [59]; cited from earlier work
Procedure: (§1) page 6: […] […] […] PAK2 […] PXXXPR PXXXPR 1.05 ITC [34] TRSVI ITSN1-2 Synthetic […] Exceptional [W/F][R/W]xSx[A/ 53 ITC [29] peptide G][F/Y][L/V]xGP[ W/L] NCK1-2 N-WASP GP[…] … 147 HSQC [64] VA[…] 199 PLCG1 SOS1 AAPV[…] … 0.20mM SPR [75] AADS[…] 0.40mM AAES[…] 0.70mM AAIA[…] 0.28mM BAIAP2L1 EspFUR45 IPP[…] … 0.5 nM ITC [76] (IRTKS) 9 SORBS2- Synthetic […] Exceptional XRXGXAYLXYVX 38 ITC [29] 1 peptide Synthetic RL[…](L/P) ...

STAC2 SH3 domain = details: STAC2, ITC, Table S4; ref [59]; cited from earlier work
Procedure: as §1

[1] = target: bPIX (ARHGEF7) SH3 domain; design: method as in 3 sources, one per row (each row's own in cited_ref): ref [33] (a number printed in a supplementary file, which may have a reference list of its own: not looked up in the article's list) ||| ref [60] (a number printed in a supplementary file, which may have a reference list of its own: not looked up in the article's list) ||| ref [34] (a number printed in a supplementary file, which may have a reference list of its own: not looked up in the article's list); details: ITC, cited from earlier work
NCK1-1 SH3 domain = details: NCK1-1, HSQC, Table S4; ref [64]; cited from earlier work
NCK1-2 SH3 domain = details: NCK1-2, HSQC, Table S4; ref [64]; cited from earlier work
Procedure: (§2) page 6: […][…] […] PAK2 […] PXXXPR PXXXPR 1.05 ITC [34] TRSVI ITSN1-2 Synthetic […] Exceptional [W/F][R/W]xSx[A/ 53 ITC [29] peptide G][F/Y][L/V]xGP[ W/L] NCK1-2 N-WASP GP[…] … 147 HSQC [64] VA[…] 199 PLCG1 SOS1 AAPV[…] … 0.20mM SPR [75] AADS[…] 0.40mM AAES[…] 0.70mM AAIA[…] 0.28mM BAIAP2L1 EspFUR45 IPP[…] … 0.5 nM ITC [76] (IRTKS) 9 SORBS2- Synthetic […] Exceptional XRXGXAYLXYVX 38 ITC [29] 1 peptide Synthetic RL[…](L/P) ...

SH3PXD2B-1/2 SH3 domains [2] = target: SH3PXD2B-1/2 SH3 domains; design: method as in ref [68] (a number printed in a supplementary file, which may have a reference list of its own: not looked up in the article's list); details: SH3PXD2B-1/2, MST, Table S4; ref [68]; cited from earlier work
SH3PXD2B-1/2 SH3 domains [3] = target: SH3PXD2B-1/2 SH3 domains; design: method as in ref [68] (a number printed in a supplementary file, which may have a reference list of its own: not looked up in the article's list); details: SH3PXD2B-1/2, FL, Table S4; ref [68]; cited from earlier work
p85A SH3 domain [4] = target: p85A SH3 domain; design: method as in ref [3] (a number printed in a supplementary file, which may have a reference list of its own: not looked up in the article's list); details: SPR, Table S4, ref [3]; cited from earlier work
[5] = target: BAIAP2L1 (IRTKS) SH3 domain; details: ITC, Table S4, ref [76]; cited from earlier work
Procedure: as §2

SORBS2-1 SH3 domain = details: SORBS2-1, ITC, Table S4; ref [29]; cited from earlier work
Procedure: as §1

FYN SH3 domain [6] = target: FYN SH3 domain; design: method as in ref [20] (a number printed in a supplementary file, which may have a reference list of its own: not looked up in the article's list); details: NMR, Table S4, ref [20]; cited from earlier work
FYN SH3 domain [7] = target: FYN SH3 domain; design: method as in ref [20] (a number printed in a supplementary file, which may have a reference list of its own: not looked up in the article's list); details: CD, Table S4, ref [20]; cited from earlier work
FYN SH3 domain [8] = target: FYN SH3 domain; design: method as in ref [20] (a number printed in a supplementary file, which may have a reference list of its own: not looked up in the article's list); details: ITC, Table S4, ref [20]; cited from earlier work
EPS8L1 SH3 domain = target: EPS8L1 SH3 domain; design: method as in ref [7] (a number printed in a supplementary file, which may have a reference list of its own: not looked up in the article's list); details: EPS8L1, ITC, Table S4; ref [7]; cited from earlier work
AMPH SH3 domain = details: g-radiation, Table S4, ref [80]; cited from earlier work
Procedure: as §1

HCK SH3 domain = details: SPR, Table S4, ref [72]; cited from earlier work
FYN SH3 domain [9] = details: SPR, Table S4, ref [72]; cited from earlier work
CD2AP-1 (CMS) SH3 domain = details: SPR, Table S4, ref [50, 82]; cited from earlier work
From the text: page 7: […] E CD2AP-1 CD2 […] PX(P/A)XXR PXXXPR 100 SPR [50, (CMS) G 82] SH3KBP1- 1 (CIN85) 1 The underlined residues in the second column represent motifs associated with the published consensus PRMs, while the residues highlighted in green represent the proposed consensus PRM identified in the current study. 2 CD: Circular Dichroism Spectroscopy FL: fluorescence-based titrations; HSQC: Heteronuclear Single Quantum Coherence; ITC: Isothermal titration calorimetry; MST: microscale thermophoresis 7

p85A SH3 domain [10] = target: p85A SH3 domain; design: method as in ref [62] (a number printed in a supplementary file, which may have a reference list of its own: not looked up in the article's list); details: FL, Table S4, ref [62]; cited from earlier work
PACSIN1 SH3 domain = target: PACSIN1 SH3 domain; design: method as in ref [61] (a number printed in a supplementary file, which may have a reference list of its own: not looked up in the article's list); details: PACSIN1, HSQC, Table S4; ref [61]; cited from earlier work
PACSIN2 SH3 domain = target: PACSIN2 SH3 domain; design: method as in ref [61] (a number printed in a supplementary file, which may have a reference list of its own: not looked up in the article's list); details: PACSIN2, HSQC, Table S4; ref [61]; cited from earlier work
PACSIN3 SH3 domain = target: PACSIN3 SH3 domain; design: method as in ref [61] (a number printed in a supplementary file, which may have a reference list of its own: not looked up in the article's list); details: PACSIN3, HSQC, Table S4; ref [61]; cited from earlier work
STAM2 SH3 domain = details: STAM2, FL, Table S4; ref [52]; cited from earlier work
Procedure: as §1

NCK1-3 SH3 domain = details: NCK1-3, HSQC, Table S4; ref [64]; cited from earlier work
Procedure: as §2

ITSN1-2 SH3 domain = details: ITSN1-2, ITC, Table S4; ref [29]; cited from earlier work
Procedure: as §1

AERLIPRRPAPPVPVPARIPSPR
Kd (SNX9 SH3 domain): 0.3 µM

ASYPPVPPP [published Peptide41 (SPTAN1 ligand)]
Kd (SPTAN1 SH3 domain): 160 µM

ATLDPGMPTPPLPPRPANLG [published Tip peptide]
Kd (LCK SH3 domain): 16.8 µM

DNSPPPALPPKKRQSAPS [published C3G peptide]
Kd (CRK-1 SH3 domain): ~2 µM

EDEPEIPLSPRPRP [published CaV1.1 peptide]
Kd (STAC1 SH3 domain): 3.92 µM
Kd (STAC2 SH3 domain): 9.31 µM

EETAPPVIAPRPDHTKSIYTRSVI [published PAK2 peptide]
Kd ([1]; Table S4, ref [34]): 1.05 µM

GPPPPPARGRGA [published N-WASP peptide]
Kd (NCK1-1 SH3 domain): > 1000 µM
Kd (NCK1-2 SH3 domain): 147 µM

GSHMGDAKQRSPKMRQRPPPRRDMTIPRGLNLPKPPIPPQVE [published SH3PXD2B peptide]
Kd (SH3PXD2B-1/2 SH3 domains [2]): 15 µM
Kd (SH3PXD2B-1/2 SH3 domains [3]): 11 µM

HSKRPLPPLPSL [published peptide PD1R]
Kd (p85A SH3 domain [4]): 40 µM

HSKYPLPPLPSL [published peptide PD1]
Kd (p85A SH3 domain [4]): 120 µM

IPPAPNWPAPTPP [published peptide EspFUR45]
Kd [5]: 0.0005 µM

KPSRPPRPSRPPPPTPRRPAS [published Itch peptide]
Kd ([1]; Table S4, ref [33]): 1.59 µM

LRTGEAYLRYVD [published synthetic peptide (SORBS2-1 ligand)]
Kd (SORBS2-1 SH3 domain): 38 µM

NVNEVKDPYPSADFPGDDEEDEPEIPLSPRPRPLAELQLKEKAVPIPE [published CaV1.1 peptide]
Kd (STAC1 SH3 domain): 0.78 µM
Kd (STAC2 SH3 domain): 1.85 µM

PPRPLPVAPGSSKT [published peptide P2L]
Kd (FYN SH3 domain [6]): 50 µM
Kd (FYN SH3 domain [7]): 28 µM
Kd (FYN SH3 domain [8]): 16 µM

PPVPNPDYEPIR [published CD3ε peptide]
Kd (EPS8L1 SH3 domain): 24 µM

PSRPNR [published Dynamin-I peptide]
Kd (AMPH SH3 domain): 0.19 µM

PVRPQVPLRPMT [published Nef peptide]
Kd (HCK SH3 domain): 91 µM
Kd (FYN SH3 domain [9]): 202 µM

QKGPPLPRPRVQPKPPHG [published CD2 peptide]
Kd (CD2AP-1 (CMS) SH3 domain): 100 µM

RKLPPRPSK [published synthetic peptide (p85A ligand)]
Kd (p85A SH3 domain [10]): 9.1 µM

RLPLRPPLPHTS [published synthetic peptide (SORBS2-1 ligand)]
Kd (SORBS2-1 SH3 domain): 121 µM

TKGPAPNPPPVLKV [published TRPV4 peptide]
Kd (PACSIN1 SH3 domain): 51.6 µM
Kd (PACSIN2 SH3 domain): 12.7 µM
Kd (PACSIN3 SH3 domain): 68.6 µM

TPMVNRENKPP [published UBPY peptide]
Kd (STAM2 SH3 domain): 27 µM

VAVPPPPPNRMY [published N-WASP peptide]
Kd (NCK1-2 SH3 domain): 199 µM
Kd (NCK1-3 SH3 domain): 1 µM

WRDSSGYVMGPW [published synthetic peptide (ITSN1-2 ligand)]
Kd (ITSN1-2 SH3 domain): 53 µM
